The text below walks through data of patent publication US12344610B2, “APOL1 inhibitors and methods of use” (Maze Therapeutics, Inc., priority 2022, dated 2025).

Molecules are shown by their SMILES. Like-named read-outs stand apart in the source and are kept apart here.

Experiment [1] concerns HEK293 cells overexpressing APOL1 G2. As to the kind of experiment: APOL1 G2 HEK293 cell rescue assay (reversal of cell death caused by overexpression of APOL1). Type of experiment: cell-based. To be noted: geometric mean of at least 2 assay runs, † = single assay run. An outline of the steps: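 Each compound tested in duplicate wells on one plate per run, with values usually the geometric mean across at least two runs on different days, occasionally from one run only. Read-out: concentration giving half-maximal rescue of APOL1 G2 overexpression-induced death of HEK293 cells.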

Experiment [2] has as its system Trypanosoma brucei Lister 427 VSG221 with APOL1 G0 recombinant protein. Description: APOL1 G0 trypanosome cell rescue assay (Example B5). Type of experiment: cell-based. The note with it: geometric mean of at least 2 assay runs, † = single assay run. An outline of the steps: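 Luminescent ATP read-out (CellTiter-Glo) of trypanosome viability after 20 h at 37° C. Bloodstream T. brucei Lister 427 VSG221, 250/well in modified HMI-9, were exposed to recombinant mature APOL1 (aa 28-398) from a 2 μg/mL addition, plus compound in 11-point 2-fold series.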

The mark [3] stands for this setting: Homo sapiens, HEK293, HEK293 overexpressing APOL1 G2.
[4] abbreviates: Trypanosoma brucei, 20 h, read-out: APOL1 G0 Trypanosome Rescue EC50, Trypanosoma brucei Lister 427 VSG221 with APOL1 G0 recombinant protein, 20 hours, CellTiter-Glo.
Where [5] appears, read: read-out: APOL1 G0 Trypanosome Rescue EC50, Trypanosoma brucei Lister 427 VSG221 with APOL1 G0 recombinant protein, 20 hours, CellTiter-Glo.

As a reminder, the EC50 is the concentration that produces a half-maximal response. Consider `CC(C)N1C(=O)CCc2cc(OCCN3CCC4(CC3)C(=O)Nc3ccc(C#N)cc34)ccc21` [Compound 96, 2-oxo-1′-(2-{[2-oxo-1-(propan-2-yl)-1,2,3,4-tetrahydroquinolin-6-yl]oxy}ethyl)-1,2-dihydrospiro[indole-3,4′-piperidine]-5-carbonitrile], for which the EC50 in experiment [1] (setting [3]) was found to be 50.5 nM; in experiment [2] (setting [4]) it was 122 nM.
For `CC(C)N1C(=O)CCc2cc(OCCN3CCC4(CC3)C(=O)Nc3ccc(Cl)cc34)ccc21` [Compound 97, 5-chloro-1′-(2-{[2-oxo-1-(propan-2-yl)-1,2,3,4-tetrahydroquinolin-6-yl]oxy}ethyl)-1,2-dihydrospiro[indole-3,4′-piperidin]-2-one], in that order: 44.6 nM and 99 nM.
As for `CS(=O)(=O)N(CCO)c1ccc(OCCN2CCC3(CC2)C(=O)Nc2ccc(Cl)cc23)cc1` [Compound 98, N-[4-(2-{5-chloro-2-oxo-1,2-dihydrospiro[indole-3,4′-piperidin]-1′-yl}ethoxy)phenyl]-N-(2-hydroxyethyl)methanesulfonamide], the EC50 in experiment [1] (setting [3]) was 54.4 nM; in experiment [2] (setting [4]) it was 207 nM.
For the molecule `O=C1CCc2cc(OCCN3CCC4(CC3)C(=O)Nc3ccc(Cl)cc34)cnc2N1[C@H]1C[C@H](O)C1` [Compound 267, 5-chloro-1′-[2-({7-oxo-8-[(trans)-3-hydroxycyclobutyl]-5,6,7,8-tetrahydro-1,8-naphthyridin-3-yl}oxy)ethyl]-1,2-dihydrospiro[indole-3,4′-piperidin]-2-one], the EC50 in experiment [1] (setting [3]) came to 37.8 nM; in experiment [2] (setting [4]) it was 95.4 nM.
As for `CS(=O)(=O)C1(c2ccc(OCCN3CCC4(CC3)C(=O)Nc3ccc(Cl)cc34)cc2)CC(O)C1` (stereo not drawn) [Compound 269, 5-chloro-1′-(2-{4-[(cis) or (trans)-3-hydroxy-1-methanesulfonylcyclobutyl]phenoxy}ethyl)-1,2-dihydrospiro[indole-3,4′-piperidin]-2-one], the EC50 turned out to be 102 nM in experiment [1] (HEK293 overexpressing APOL1 G2) and 207 nM in experiment [2] (setting [5]).
Turning to `CS(=O)(=O)C1(c2ccc(OCCN3CCC4(CC3)C(=O)Nc3ccc(Cl)cc34)cc2)CC(O)C1` (stereo not drawn) [Compound 270, 5-chloro-1′-(2-{4-[(trans) or (cis)-3-hydroxy-1-methanesulfonylcyclobutyl]phenoxy}ethyl)-1,2-dihydrospiro[indole-3,4′-piperidin]-2-one], the values for the EC50 in experiment [1] (HEK293 overexpressing APOL1 G2) and in experiment [2] (setting [5]) were 25.6 nM and 72.5 nM, respectively.
For `C[C@]1(O)C[C@@H](n2c(=O)cnc3cc(OCCN4CCC5(CC4)C(=O)Nc4ccc(Cl)cc45)cnc32)C1` [Compound 358, 5-chloro-1′-[2-({3-oxo-4-[(cis)-3-hydroxy-3-methylcyclobutyl]-3H,4H-pyrido[2,3-b]pyrazin-7-yl}oxy)ethyl]-1,2-dihydrospiro[indole-3,4′-piperidin]-2-one], the EC50 was found to be 65 nM in experiment [1] (setting [3]) and 62.1 nM in experiment [2] (setting [4]).
On to `CC1(O)CN(c2ncc(OCCN3CCC4(CC3)C(=O)Nc3ccc(C(F)F)cc34)cn2)C1` [Compound 395, 5-(difluoromethyl)-1′-(2-{[2-(3-hydroxy-3-methylazetidin-1-yl)pyrimidin-5-yl]oxy}ethyl)-1,2-dihydrospiro[indole-3,4′-piperidin]-2-one], for which the EC50 in experiment [1] (setting [3]) turned out to be 86.8 nM; in experiment [2] (setting [4]) it was 240 nM.
